Reference: BigSolDB 2.1

CS(=O)(=O)c1ccc(C=O)cc1
solubility (mole fraction)
Conditions | in acetic acid | in acetone | in acetonitrile | in ethanol | in isopropanol | in methanol | in n-butanol | in n-propanol | in toluene
283.15 K | 0.00336 | 0.00798 | 0.00598 | 0.000869 | 0.000288 | 0.00206 | 0.000596 | 0.000541 | 0.000746
285.65 K | 0.00368 | 0.00872 | 0.00661 | 0.000944 | 0.000321 | 0.0022 | 0.000652 | 0.000587 | 0.000825
288.15 K | 0.00401 | 0.00937 | 0.00734 | 0.00103 | 0.000355 | 0.00242 | 0.000724 | 0.000659 | 0.000919
290.65 K | 0.00445 | 0.0104 | 0.00814 | 0.00117 | 0.000405 | 0.00266 | 0.000828 | 0.000742 | 0.00103
293.15 K | 0.00488 | 0.0114 | 0.00903 | 0.0013 | 0.000445 | 0.00295 | 0.000923 | 0.000835 | 0.00115
295.65 K | 0.00539 | 0.0126 | 0.0101 | 0.00143 | 0.000502 | 0.00325 | 0.00102 | 0.000933 | 0.00128
298.15 K | 0.00598 | 0.0136 | 0.0111 | 0.00158 | 0.00056 | 0.00358 | 0.00114 | 0.00105 | 0.00144
300.65 K | 0.00662 | 0.0148 | 0.0123 | 0.00174 | 0.000629 | 0.00392 | 0.00128 | 0.00115 | 0.00161
303.15 K | 0.00727 | 0.0161 | 0.0137 | 0.00192 | 0.000703 | 0.00431 | 0.0014 | 0.00126 | 0.0018
305.65 K | 0.00811 | 0.0174 | 0.0152 | 0.00212 | 0.000796 | 0.00471 | 0.00155 | 0.00141 | 0.002
308.15 K | 0.00895 | 0.0189 | 0.017 | 0.00235 | 0.000894 | 0.00518 | 0.00171 | 0.00157 | 0.00224
310.65 K | 0.00984 | 0.0206 | 0.019 | 0.00258 | 0.00101 | 0.00572 | 0.00191 | 0.00176 | 0.0025
313.15 K | 0.0108 | 0.0226 | 0.021 | 0.00284 | 0.00112 | 0.00623 | 0.00211 | 0.00194 | 0.00276
315.65 K | 0.0118 | 0.0245 | 0.023 | 0.00311 | 0.00125 | 0.00678 | 0.00232 | 0.00216 | 0.00308
318.15 K | 0.0129 | 0.0269 | 0.0252 | 0.00341 | 0.00139 | 0.00739 | 0.0026 | 0.00241 | 0.0034
